Results published in the supplement of paper PMC8612539.
≈ marks a conversion by molar mass, not a printed value.

Key:
Mannheimia haemolytica = assay: minimum inhibitory concentration (MIC)
Protocol: (§1)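 Broth microdilution MIC (Sensititre BOPO7F bovine plate, CLSI methods) of 19 antimicrobials against field isolates of P. multocida, M. haemolytica, H. somni (deep nasopharyngeal swabs) and E. coli, Enterococcus spp. (rectal swabs) from weaned dairy heifers. Incubation 16-24 h at 35 C. MIC is the lowest concentration preventing visible growth. Values with <= or > lie at the tested range limits. Trimethoprim-sulfamethoxazole is given as the trimethoprim component of a 1:19 mixture.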

Enterococcus spp. = assay: minimum inhibitory concentration (MIC)
Protocol: as §1

CC[C@H]1OC(=O)C[C@@H](O)[C@H](C)[C@@H](O[C@@H]2O[C@H](C)[C@@H](O)[C@H](N(C)C)[C@H]2O)[C@@H](CCN2C[C@H](C)C[C@H](C)C2)C[C@@H](C)C(=O)/C=C/C(C)=C/[C@@H]1CO[C@@H]1O[C@H](C)[C@@H](O)[C@@H](OC)[C@H]1OC [Tilmicosin]
minimum inhibitory concentration [µg/mL]
Conditions	Enterococcus spp.	Mannheimia haemolytica
isolate (source animal id): 2	8 (≈ 9.2 µM)	–
isolate (source animal id): 35	> 16	–
isolate (source animal id): 42	8 (≈ 9.2 µM)	–
isolate (source animal id): 44	8 (≈ 9.2 µM)	–
isolate (source animal id): 79	8 (≈ 9.2 µM)	–
isolate (source animal id): 88	8 (≈ 9.2 µM)	–
isolate (source animal id): 91	8 (≈ 9.2 µM)	–
isolate (source animal id): 92	16 (≈ 18.4 µM)	–
isolate (source animal id): 111	8 (≈ 9.2 µM)	–
isolate (source animal id): 122	> 16	–
isolate (source animal id): 123	8 (≈ 9.2 µM)	–
isolate (source animal id): 133	8 (≈ 9.2 µM)	–
isolate (source animal id): 158	> 16	–
isolate (source animal id): 168	16 (≈ 18.4 µM)	–
isolate (source animal id): 169	16 (≈ 18.4 µM)	–
isolate (source animal id): 171	16 (≈ 18.4 µM)	–
isolate (source animal id): 175	> 16	–
isolate (source animal id): 177	16 (≈ 18.4 µM)	–
isolate (source animal id): 181	8 (≈ 9.2 µM)	–
isolate (source animal id): 182	16 (≈ 18.4 µM)	–
isolate (source animal id): 183	8 (≈ 9.2 µM)	–
isolate (source animal id): 187	16 (≈ 18.4 µM)	–
isolate (source animal id): 190	8 (≈ 9.2 µM)	–
isolate (source animal id): 194	8 (≈ 9.2 µM)	–
isolate (source animal id): 195	8 (≈ 9.2 µM)	–
isolate (source animal id): 197	8 (≈ 9.2 µM)	–
isolate (source animal id): 211	8 (≈ 9.2 µM)	–
isolate (source animal id): 214	8 (≈ 9.2 µM)	–
isolate (source animal id): 222	8 (≈ 9.2 µM)	–
isolate (source animal id): 223	8 (≈ 9.2 µM)	–
isolate (source animal id): 228	> 16	–
isolate (source animal id): 230	> 16	–
isolate (source animal id): 235	> 16	–
isolate (source animal id): 236	8 (≈ 9.2 µM)	–
isolate (source animal id): 239	4 (≈ 4.6 µM)	–
isolate (source animal id): 241	> 16	–
isolate (source animal id): 244	16 (≈ 18.4 µM)	–
isolate (source animal id): 246	16 (≈ 18.4 µM)	–
isolate (source animal id): 247	> 16	–
isolate (source animal id): 250	16 (≈ 18.4 µM)	–
isolate (source animal id): 252	> 16	–
isolate (source animal id): 268	> 16	–
isolate (source animal id): 282	8 (≈ 9.2 µM)	–
isolate (source animal id): 285	> 16	–
isolate (source animal id): 288	–	4 (≈ 4.6 µM)
isolate (source animal id): 289	16 (≈ 18.4 µM)	–
isolate (source animal id): 290	8 (≈ 9.2 µM)	–
isolate (source animal id): 291	–	4 (≈ 4.6 µM)
isolate (source animal id): 293	–	> 16
isolate (source animal id): 296	8 (≈ 9.2 µM)	–
isolate (source animal id): 298	4 (≈ 4.6 µM)	> 16
isolate (source animal id): 299	–	> 16
isolate (source animal id): 300	–	8 (≈ 9.2 µM)
isolate (source animal id): 301	8 (≈ 9.2 µM)	–
isolate (source animal id): 302	–	> 16
isolate (source animal id): 304	–	> 16
isolate (source animal id): 306	–	4 (≈ 4.6 µM)
isolate (source animal id): 308	–	4 (≈ 4.6 µM)
isolate (source animal id): 309	–	4 (≈ 4.6 µM)
isolate (source animal id): 310	> 16	–
isolate (source animal id): 313	–	> 16
isolate (source animal id): 318	–	> 16
isolate (source animal id): 320	8 (≈ 9.2 µM)	8 (≈ 9.2 µM)
isolate (source animal id): 321	–	> 16
isolate (source animal id): 323	–	> 16
isolate (source animal id): 324	–	> 16
isolate (source animal id): 326	–	> 16
isolate (source animal id): 328	–	> 16
isolate (source animal id): 329	–	> 16
isolate (source animal id): 331	8 (≈ 9.2 µM)	–
isolate (source animal id): 333	8 (≈ 9.2 µM)	> 16
isolate (source animal id): 335	–	> 16
isolate (source animal id): 338	–	> 16
isolate (source animal id): 341	> 16	–
